According to PubChem BioAssay AID296 (DTP/NCI, 2004):
Several values for one entry are separate records, joined by “and”; a condition that tells them apart may be missing. Equal entries are not always repeated. Records with an inconclusive call do not appear.

System: MX-1 breast xenograft, nude mice, tumor weight T/C
Assay: NCI In Vivo Anticancer Drug Screen. Data for tumor model Human Mammary Carcinoma MX-1 Xenograft (intrarenal inoculation) in NU/NU Swiss (nude) mice
Conditions: endpoint: mean tumor weight change, higher = larger tumour
In short: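 Antitumour effect measured in vivo against vehicle controls, expressed as T/C.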

[1] = dose: 75.0 mg/kg/injection, schedule: Q04DX003 (sc), vehicle: Klucel (hydroxypropylcellulose) (HPC)
[2] = dose: 150.0 mg/kg/injection, schedule: Q04DX003 (sc), vehicle: Klucel (hydroxypropylcellulose) (HPC)
[3] = dose: 300.0 mg/kg/injection, schedule: Q04DX003 (sc), vehicle: Klucel (hydroxypropylcellulose) (HPC)
[4] = dose: 150.0 mg/kg/injection, schedule: Q04DX003 (sc), vehicle: saline with Tween-80
[5] = dose: 300.0 mg/kg/injection, schedule: Q04DX003 (sc), vehicle: saline with Tween-80
[6] = dose: 600.0 mg/kg/injection, schedule: Q04DX003 (sc), vehicle: saline with Tween-80
[7] = dose: 1200.0 mg/kg/injection, schedule: Q04DX003 (sc), vehicle: saline with Tween-80

SMILES: COc1c(O)c2c(c3cc(C(=O)N4CCc5c4c(O)c(OC)c4[nH]c(C(=O)N6CC7CC78C6=CC(=O)c6[nH]cc(C)c68)cc54)[nH]c13)CCN2C(N)=O (centres undefined)
- T/C (dose: 2.5 mg/kg/injection, schedule: Q01DX010 (sc), vehicle: DMSO): 37 % of control
- T/C (dose: 5.0 mg/kg/injection, schedule: Q01DX010 (sc), vehicle: DMSO): 82 % of control
- T/C (dose: 10.0 mg/kg/injection, schedule: Q01DX010 (sc), vehicle: DMSO): 1 % of control
- T/C (dose: 6.25 micrograms/kg/injection, schedule: Q01DX010 (sc), vehicle: DMSO): 63 % of control
- T/C (dose: 12.5 micrograms/kg/injection, schedule: Q01DX010 (sc), vehicle: DMSO): 53 % of control
- T/C (dose: 25.0 micrograms/kg/injection, schedule: Q01DX010 (sc), vehicle: DMSO): 68 % of control
- T/C (dose: 50.0 micrograms/kg/injection, schedule: Q01DX010 (sc), vehicle: DMSO): 90 % of control
- T/C (dose: 100.0 micrograms/kg/injection, schedule: Q01DX010 (sc), vehicle: DMSO): 85 % of control
- T/C (dose: 400.0 micrograms/kg/injection, schedule: Q01DX010 (sc), vehicle: DMSO): 117 % of control

SMILES: Nc1ncnc2c1ccn2C1OC(CO)C(O)C1O (centres undefined)
- T/C (dose: 1.0 mg/kg/injection, schedule: Q01DX010 (sc), vehicle: Klucel (hydroxypropylcellulose) (HPC)): 101 % of control
- T/C (dose: 2.0 mg/kg/injection, schedule: Q01DX010 (sc), vehicle: Klucel (hydroxypropylcellulose) (HPC)): 157 % of control
- T/C (dose: 4.0 mg/kg/injection, schedule: Q01DX010 (sc), vehicle: Klucel (hydroxypropylcellulose) (HPC)): 75 % of control

SMILES: CCC1(O)CC2CN(CCc3c([nH]c4ccccc34)C(C(=O)OC)(c3cc4c(cc3OC)N(C)C3C(O)(C(N)=O)C(O)C5(CC)C=CCN6CCC43C65)C2)C1 (centres undefined) (tested in a mixture with another compound)
- T/C (dose: 0.75 mg/kg/injection, schedule: Q04DX003 (sc), vehicle: water): 27 % of control
- T/C (dose: 1.5 mg/kg/injection, schedule: Q04DX003 (sc), vehicle: water): 1 % of control
- T/C (dose: 6.0 mg/kg/injection, schedule: Q04DX003 (sc), vehicle: water): -44 % of control

SMILES: CNC(=O)ON(C(C)=O)C(=O)NC
- T/C (dose: 50.0 mg/kg/injection, schedule: Q04DX003 (sc), vehicle: saline): 69 % of control
- T/C (dose: 100.0 mg/kg/injection, schedule: Q01DX010 (sc), vehicle: water): 108 % of control
- T/C (dose: 150.0 mg/kg/injection, schedule: Q01DX010 (sc), vehicle: water): 67 % of control
- T/C (dose: 200.0 mg/kg/injection, schedule: Q01DX010 (sc), vehicle: water): 85 % of control
- T/C (dose: 200.0 mg/kg/injection, schedule: Q04DX003 (sc), vehicle: saline): 16 % of control

SMILES: O=c1nc(-c2ccco2)sc(=O)[nH]1
- T/C [1]: 122 % of control
- T/C [2]: 90 % of control
- T/C [3]: 54 % of control
- T/C (dose: 600.0 mg/kg/injection, schedule: Q04DX003 (sc), vehicle: Klucel (hydroxypropylcellulose) (HPC)): 58 % of control

SMILES: O=C(O)CSc1c(Cl)c(=O)oc2ccc(Cl)cc12
- T/C [1]: 87 % of control
- T/C [2]: 61 % of control and 75 % of control
- T/C [3]: 54 % of control and 62 % of control

SMILES: CCOC(=O)c1ccc(NC(=O)Nc2nncs2)cc1
- T/C (dose: 50.0 mg/kg/injection, schedule: Q01DX010 (sc), vehicle: distilled water + Tween-80): 44 % of control
- T/C (dose: 100.0 mg/kg/injection, schedule: Q01DX010 (sc), vehicle: saline with Tween-80): 65 % of control
- T/C (dose: 200.0 mg/kg/injection, schedule: Q01DX010 (sc), vehicle: saline with Tween-80): 62 % of control
- T/C (dose: 400.0 mg/kg/injection, schedule: Q01DX010 (sc), vehicle: saline with Tween-80): 65 % of control
- T/C (dose: 800.0 mg/kg/injection, schedule: Q01DX010 (sc), vehicle: distilled water + Tween-80): 120 % of control
- T/C (dose: 800.0 mg/kg/injection, schedule: Q01DX010 (sc), vehicle: saline with Tween-80): 37 % of control

SMILES: CC(C)=CC(=O)OC1C2C(C)=CC(=O)C(O)C2(C)C2C3(O)OCC24C(CC(=O)OC14)C(C)C3O (centres undefined)
- T/C (dose: 1.25 mg/kg/injection, schedule: Q04DX003 (sc), vehicle: distilled water + Tween-80): 41 % of control
- T/C (dose: 2.5 mg/kg/injection, schedule: Q04DX003 (sc), vehicle: distilled water + Tween-80): 82 % of control
- T/C (dose: 5.0 mg/kg/injection, schedule: Q04DX003 (sc), vehicle: distilled water + Tween-80): 71 % of control
- T/C (dose: 10.0 mg/kg/injection, schedule: Q04DX003 (sc), vehicle: distilled water + Tween-80): 88 % of control

SMILES: COC(=O)C[C@](O)(CCCC(C)(C)O)C(=O)O[C@@H]1C(OC)=C[C@]23CCCN2CCc2cc4c(cc2[C@H]13)OCO4
- T/C (dose: 0.5 mg/kg/injection, schedule: Q01DX010 (sc), vehicle: saline): 177 % of control
- T/C (dose: 1.0 mg/kg/injection, schedule: Q01DX010 (sc), vehicle: saline): 110 % of control

SMILES: NCc1cc(O)c(O)c(O)c1
- T/C (dose: 150.0 mg/kg/injection, schedule: Q04DX003 (ip), vehicle: saline): 115 % of control
- T/C (dose: 300.0 mg/kg/injection, schedule: Q04DX003 (ip), vehicle: saline): 91 % of control
- T/C (dose: 600.0 mg/kg/injection, schedule: Q04DX003 (ip), vehicle: saline): 88 % of control

SMILES: [Cl][Mn][Cl]
- T/C (dose: 37.5 mg/kg/injection, schedule: Q04DX003 (sc), vehicle: saline): 115 % of control
- T/C (dose: 75.0 mg/kg/injection, schedule: Q04DX003 (sc), vehicle: saline): 109 % of control
- T/C (dose: 150.0 mg/kg/injection, schedule: Q04DX003 (sc), vehicle: saline): 104 % of control

SMILES: CCCCCCCCCCCCCC#CC(=O)O
- T/C (dose: 75.0 mg/kg/injection, schedule: Q04DX003 (sc), vehicle: saline with Tween-80): 87 % of control
- T/C [4]: 94 % of control
- T/C [5]: 92 % of control
- T/C [6]: 77 % of control

SMILES: O=C1SC(c2ccccc2)=S=C1c1ccccc1
- T/C [5]: 102 % of control
- T/C [6]: 78 % of control
- T/C [7]: 109 % of control
- T/C (dose: 2400.0 mg/kg/injection, schedule: Q04DX003 (sc), vehicle: saline with Tween-80): 48 % of control

SMILES: COC1C(O)CC(OC2CC(OC3CC(O[C@@H]4C(=O)c5c(cc6cc(OC7CC(OC8CC(O)C(O)C(C)O8)C(O)C(C)O7)c(C)c(O)c6c5O)C[C@H]4[C@H](OC)C(=O)[C@@H](O)[C@@H](C)O)OC(C)C3O)OC(C)C2O)OC1C (some centres undefined)
- T/C (dose: 0.18 mg/kg/injection, schedule: Q01DX010 (sc), vehicle: saline): 99 % of control
- T/C (dose: 0.37 mg/kg/injection, schedule: Q04DX003 (sc), vehicle: saline): 123 % of control
- T/C (dose: 0.75 mg/kg/injection, schedule: Q04DX003 (sc), vehicle: saline): 90 % of control
- T/C (dose: 1.5 mg/kg/injection, schedule: Q04DX003 (sc), vehicle: saline): 61 % of control
- T/C (dose: 3.0 mg/kg/injection, schedule: Q01DX010 (sc), vehicle: saline): -93 % of control
- T/C (dose: 3.0 mg/kg/injection, schedule: Q04DX003 (sc), vehicle: saline): 35 % of control

SMILES: COC(=O)NC1C(C)OC(OC2C/C=C(/C)C3C=CC4C(OC5CC(OC6CCC(OC7CC(O)C(OC8CCC(O)C(C)O8)C(C)O7)C(C)O6)C(OC(C)=O)C(C)O5)C(C)CC(C)C4C3(C)/C(O)=C3/C(=O)OC4(CC(C=O)=CC(O)C4/C=C\2C)C3=O)CC1(C)[N+](=O)[O-] (centres undefined)
- T/C (dose: 25.0 mg/kg/injection, schedule: Q04DX003 (sc), vehicle: other): 95 % of control
- T/C (dose: 50.0 mg/kg/injection, schedule: Q04DX003 (sc), vehicle: other): 71 % of control

SMILES: O=NN(CCCl)C(=O)NC1CCCCC1
- T/C (dose: 4.0 mg/kg/injection, schedule: Q01DX010 (sc), vehicle: saline with Tween-80): 109 % of control
- T/C (dose: 8.0 mg/kg/injection, schedule: Q04DX003 (sc), vehicle: Klucel (hydroxypropylcellulose) (HPC)): 88 % of control and 92 % of control
- T/C (dose: 8.0 mg/kg/injection, schedule: Q04DX003 (sc), vehicle: carboxymethylcellulose (CMC)): 89 % of control
- T/C (dose: 12.5 mg/kg/injection, schedule: Q04DX003 (sc), vehicle: Klucel (hydroxypropylcellulose) (HPC)): 59 % of control
- T/C (dose: 16.0 mg/kg/injection, schedule: Q01DX010 (sc), vehicle: saline with Tween-80): 28 % of control
- T/C (dose: 16.0 mg/kg/injection, schedule: Q04DX003 (sc), vehicle: carboxymethylcellulose (CMC)): 85 % of control
- T/C (dose: 25.0 mg/kg/injection, schedule: Q04DX003 (sc), vehicle: Klucel (hydroxypropylcellulose) (HPC)): 92 % of control and 213 % of control
- T/C (dose: 32.0 mg/kg/injection, schedule: Q04DX003 (sc), vehicle: carboxymethylcellulose (CMC)): 77 % of control
- T/C (dose: 64.0 mg/kg/injection, schedule: Q04DX003 (sc), vehicle: Klucel (hydroxypropylcellulose) (HPC)): -95 % of control
- T/C (dose: 64.0 mg/kg/injection, schedule: Q04DX003 (sc), vehicle: carboxymethylcellulose (CMC)): 29 % of control

SMILES: CC1=C(/C=C/C(C)=C/C=C/C(C)=C/C=O)C(C)(C)CCC1
- T/C [4]: 88 % of control
- T/C [5]: 98 % of control
- T/C [7]: 53 % of control
